Legend:
[1] = Stability study of Compound 4 formulations; assay type: physicochemical
GLP-1 receptor [2] = biological target: T1, GLP-1 receptor (Homo sapiens, UniProt P43220); assay: TagLite binding assay, GLP-1 receptor
[3] = Pharmacokinetic study of Compounds 4, 14, 15, 17 in monkeys; conditions: cynomolgus monkey, in vivo, sc, 0.2 mg/kg
Experimental: The formulations were administered to cynomolgus monkeys at a dose of 0.2 mg/kg. Plasma concentration versus time data was collected and pharmacokinetic values determined.

GLP-1 receptor [4] = biological target: T1, GLP-1 receptor; assay: HSA modulated binding assay, GLP-1 receptor
[5] = system: mice fed a Gubra amylin NASH (GAN) diet; assay: Biological effects in GAN diet-induced NASH mice; assay type: in vivo; conditions: after two weeks
Experimental: NASH was induced in mice by feeding mice a Gubra amylin NASH (GAN) diet as described in Boland et al. World J Gastroenterol. 2019, 25(33): 4904-4920. One week prior to administration of a first dose of compounds, the mice were weighed and randomized, and their food intake was measured. Mice were randomly assigned to dosing groups, with twelve mice per group. […] Compound dose titration (nmol/kg): 0.6 (day 0), 1.2 (day 1), 2.4 (day 2), 4.8 (day 3), 4.8 (day 4), 12 (day 5), 30.0 (from day 6).
After two weeks, animals were sacrificed. Plasma enzymes (P-ALT (alanine aminotransferase) and P-AST (aspartate aminotransferase)), total plasma triglycerides, and total plasma cholesterol were measured, and terminal necropsy of each liver was carried out, determining relative liver weight as a percentage of body weight, assaying total liver biochemistry including total liver triglycerides, plasma insulin and total liver cholesterol, as well as histological evaluation of Galectin-3, and alpha-smooth muscle actin.

GIP receptor [6] = biological target: T2, GIP receptor (Homo sapiens, UniProt P48546); assay: TagLite binding assay, GIP receptor
T2 sequence (P48546 22-466): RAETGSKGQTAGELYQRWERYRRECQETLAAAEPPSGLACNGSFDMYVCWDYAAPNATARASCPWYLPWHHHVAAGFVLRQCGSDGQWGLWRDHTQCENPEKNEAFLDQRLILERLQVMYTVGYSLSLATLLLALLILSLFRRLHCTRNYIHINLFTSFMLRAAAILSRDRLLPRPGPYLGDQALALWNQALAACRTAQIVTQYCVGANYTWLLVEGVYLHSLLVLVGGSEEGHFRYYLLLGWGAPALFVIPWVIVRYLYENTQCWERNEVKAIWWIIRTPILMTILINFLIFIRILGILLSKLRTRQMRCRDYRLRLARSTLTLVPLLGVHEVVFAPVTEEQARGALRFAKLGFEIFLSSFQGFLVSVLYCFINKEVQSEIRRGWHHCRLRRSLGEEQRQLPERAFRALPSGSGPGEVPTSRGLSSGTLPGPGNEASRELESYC

GIP receptor [7] = biological target: T2, GIP receptor; assay: HSA modulated binding assay, GIP receptor
[8] = GMP formulation, 2.5 mg/ml Compound 4, 0.94% propylene glycol, 0.36% phenol, 0.074% dibasic sodium phosphate, 0.005% polysorbate 80, initial
[9] = same formulation stored for one month at 25° C./60% R.H.
[10] = binding with 2% HSA to binding with 0% HSA
[11] = liver Galectin-3, histological quantitative assessment
[12] = liver alpha-smooth muscle actin, histological quantitative assessment

T1 sequence (P43220 24-463): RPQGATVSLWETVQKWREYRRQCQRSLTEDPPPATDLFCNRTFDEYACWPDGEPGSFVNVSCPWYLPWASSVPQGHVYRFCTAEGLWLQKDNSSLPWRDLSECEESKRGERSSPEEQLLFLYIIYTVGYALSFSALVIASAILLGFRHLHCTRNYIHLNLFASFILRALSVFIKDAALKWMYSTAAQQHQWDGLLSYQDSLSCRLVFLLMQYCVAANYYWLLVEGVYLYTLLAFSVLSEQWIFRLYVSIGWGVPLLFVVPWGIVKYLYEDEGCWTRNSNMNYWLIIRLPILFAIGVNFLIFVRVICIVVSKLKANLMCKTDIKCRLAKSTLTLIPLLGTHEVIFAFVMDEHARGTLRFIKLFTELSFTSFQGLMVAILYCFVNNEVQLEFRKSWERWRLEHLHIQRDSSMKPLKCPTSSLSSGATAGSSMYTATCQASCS

Question: Which results are given for `CC[C@H](C)[C@H](NC(=O)[C@H](CC(C)C)NC(=O)[C@H](Cc1c[nH]c2ccccc12)NC(=O)[C@H](CCC(N)=O)NC(=O)[C@@H](NC(=O)[C@H](Cc1ccccc1)NC(=O)[C@H](C)NC(=O)[C@H](CCCCNC(=O)COCCOCCNC(=O)COCCOCCNC(=O)CC[C@H](NC(=O)CCCCCCCCCCCCCCCCCCP(=O)(O)O)C(=O)O)NC(=O)[C@H](CCC(N)=O)NC(=O)[C@H](C)NC(=O)[C@@H](NC(=O)[C@H](CCCCN)NC(=O)[C@H](CC(=O)O)NC(=O)[C@H](CC(C)C)NC(=O)C(C)(C)NC(=O)[C@@H](NC(=O)[C@H](CO)NC(=O)[C@H](Cc1ccc(O)cc1)NC(=O)[C@H](CC(=O)O)NC(=O)[C@H](CO)NC(=O)[C@@H](NC(=O)[C@H](Cc1ccccc1)NC(=O)[C@@H](NC(=O)CNC(=O)[C@H](CCC(=O)O)NC(=O)C(C)(C)NC(=O)[C@@H](N)Cc1ccc(O)cc1)[C@@H](C)O)[C@@H](C)O)[C@@H](C)CC)[C@@H](C)CC)C(C)C)C(=O)N[C@@H](C)C(=O)NCC(=O)NCC(=O)N1CCC[C@H]1C(=O)N[C@@H](CO)C(=O)N[C@@H](CO)C(=O)NCC(=O)N[C@@H](C)C(=O)N1CCC[C@H]1C(=O)N1CCC[C@H]1C(=O)N1CCC[C@H]1C(=O)N[C@@H](CO)C(N)=O` [Compound 4]?
Answer: Compound 4 assay, before storage [1, 8]: 103%; total impurities, before storage [1, 8]: 0.57%; Compound 4 assay, after storage [1, 9]: 102.4%; total impurities, after storage [1, 9]: 0.76%; IC50 (GLP-1 receptor [2]; read-out: GLP-1 receptor IC 50): 105 nM; AUC(0-inf) [3]: 321 µg·h/mL; AUC(0-t) [3]: 309 µg·h/mL; CL/F [3]: 15.2 mL/day/kg; Cmax [3]: 1890 ng/mL; Tmax [3]: 20 h; Vd/F [3]: 0.095 L/kg; half-life [3]: 105 h; IC50 (GLP-1 receptor [4]; 0% human serum albumin, read-out: GLP-1 receptor IC 50, 0% HSA): 154 nM; GLP-1 receptor Ratio of HSA/No HSA (GLP-1 receptor [4]; [10]): 6.42; IC50 (GLP-1 receptor [4]; read-out: GLP-1 receptor IC 50, 2% HSA, 2% human serum albumin): 988 nM; liver Galectin-3 compared to tirzepatide or vehicle (in words) [5]: lower relative and total liver Galectin-3 as compared to administration of tirzepatide or vehicle alone; liver alpha-smooth muscle actin compared to tirzepatide (in words) [5]: lower relative and total liver alpha-smooth muscle actin as compared to administration of tirzepatide; liver triglycerides compared to tirzepatide or vehicle (in words) [5]: lower relative and total liver triglycerides as compared to administration of tirzepatide or vehicle alone; Gal-3 Relative [5, 11]: 6.3 ± 0.3 percent fractional area; Gal-3 Total [5, 11]: 137 ± 15 mg; α-SMA Relative [5, 12]: 4.8 ± 0.6 percent fractional area; α-SMA Total [5, 12]: 102 ± 10 mg; TG Relative ([5]; liver triglycerides): 37 ± 3 mg per/g liver; TG Total ([5]; liver triglycerides): 70 ± 5 mg per/liver; IC50 (GIP receptor [6]; read-out: GIP receptor IC 50): 153 nM; IC50 (GIP receptor [7]; 0% human serum albumin, read-out: GIP receptor IC 50, 0% HSA): 264 nM; GIP receptor Ratio of HSA/No HSA (GIP receptor [7]; [10]): 1.25; IC50 (GIP receptor [7]; read-out: GIP receptor IC 50, 2% HSA, 2% human serum albumin): 331 nM

Question: With tirzepatide [reference compound] as the molecule, how does the “GLP-1 receptor % Binding avg at CMax” value (GLP-1 receptor [2]) read?
Answer: 0.20%

Question: What about the “GLP-1 receptor % Binding avg at CMax, 0% HSA” value (GLP-1 receptor [4]; 0% human serum albumin) of the same molecule?
Answer: −0.14%

Question: And the “GLP-1 receptor % Binding avg at CMax, 2% HSA” value (GLP-1 receptor [4]; 2% human serum albumin)?
Answer: 33.01%

Question: And the “binding affinity for albumin (in words)” value (GLP-1 receptor [4]; inferred from the HSA ratios at GLP-1 and GIP receptors)?
Answer: greater than that of Compound 4 or of Compound 12

Question: And the “Gal-3 Total” value [5, 11]?
Answer: 138 ± 17 mg

Question: What about the “α-SMA Total” value [5, 12] of the same molecule?
Answer: 108 ± 22 mg

Question: What about the “TG Total” value ([5]; liver triglycerides) of the same molecule?
Answer: 80 ± 11 mg per/liver

Question: And the “GIP receptor % Binding avg at CMax” value (GIP receptor [6])?
Answer: −1.21%

Question: What about the “GIP receptor % Binding avg at CMax, 0% HSA” value (GIP receptor [7]; 0% human serum albumin) of the same molecule?
Answer: −3.05%

Question: And the “GIP receptor % Binding avg at CMax, 2% HSA” value (GIP receptor [7]; 2% human serum albumin)?
Answer: 10.07%
